Results from PMC5618426, “APETx4, a Novel Sea Anemone Toxin and a Modulator of the Cancer-Relevant Potassium Channel KV10.1” (Marine Drugs, 2017).
Entries after “also recorded” stand apart in the source; their conditions may differ. Positions of bridges follow the written chain, without caps; N, C: chain ends. No end group written: not given here.

Columns and labels:
Assay type in all cases: cell-based, human
hKV11.1 (hERG) = system: hKV11.1 (hERG)
Protocol: For the expression of the ion channels (rNaV1.4, hNaV1.5, mNaV1.6, hKV1.1, rKV1.3, hKV1.4, hKV1.5, hKV2.1, hKV10.1a and hKV11.1,) in Xenopus oocytes, the plasmids were linearized and subsequently transcribed using the T7 or SP6 mMESSAGE-mMACHINE transcription kit (Ambion®, Carlsbad, CA, USA).
Stage V-VI Xenopus laevis oocytes were isolated by partial ovariectomy. The animals were anesthetized by a 15 min submersion in 0.1% tricaine methane sulfonate (pH 7.0). Isolated oocytes were defolliculated with 2 mg/mL collagenase.
Defolliculated oocytes were injected with 50 nL of cRNA at a concentration of 1 ng/nL using a micro-injector (Drummond Scientific®, Broomall, PA, USA). The oocytes were incubated in a solution containing (in mM): NaCl, 96; KCl, 2; CaCl2, 1.8; MgCl2, 2 and HEPES, 5 (pH 7.4), supplemented with 50 mg/L gentamycin sulfate.
Two-electrode voltage-clamp recordings were performed at room temperature (18–22 °C) using an Geneclamp 500B Voltage and Patch Clamp Amplifier (Axon Instruments, Union City, CA, USA, controlled by a Axon Digidata 1550 Low-Noise Data Acquisition System (Axon Instruments). Whole cell currents from oocytes were recorded 1–4 days after injection. The normal bath solution (ND96) composition was (in mM): NaCl, 96; KCl, 2; CaCl2, 1.8; MgCl2, 2 and HEPES, 5 (pH 7.4). The high potassium solution (HK) composition was in mM): NaCl, 2; KCl, 96; CaCl2, 1.8; MgCl2, 2 and HEPES, 5 (pH 7.4). Voltage and current electrodes were filled with 3 M KCl. Resistances of both electrodes were kept between 0.5 and 1.5 MΩ. The elicited KV1.x end KV2.1 currents were filtered at 500 Hz and sampled at 2 kHz, KV10.1 currents were filtered at 1 kHz and sampled at 2 kHz, hERG currents were filtered at 1 kHz and sampled at 10 kHz and the sodium currents were filtered at 2 kHz and sampled at 20 kHz using a four-pole low-pass Bessel filter. Leak subtraction was performed using a -P/4 protocol.
KV10.1 currents were evoked by 2 s depolarizing pulses to 0 mV from a holding potential of −90 mV. KV11.1 (hERG) peak and tail currents were generated by a 2.5 s prepulse from −90 mV to 40 mV followed by a 2.5 s pulse to −120 mV. […]
The peak and tail current of hERG were measured at different voltages by 1500 ms activating pulses from −60 mV to 55 mV in 5 mV steps from the holding potential of −90 mV, followed by a 750 ms step to −120 mV.
All electrophysiological data are presented as means ± S.E.M of n ≥ 3 independent experiments unless otherwise indicated. All data were acquired using pClamp Clampex 10.4 Molecular Devices, Downingtown, PA, USA) and analyzed using pClamp Clampfit 10.4 (Molecular Devices) and OriginPro 8 (Originlab, Northampton, MA, USA) or GraphPad Prism 6 software (GraphPad Software, Inc., San Diego, CA, USA). […]

MDA-MB-435S [1] = assay: proliferation (IncuCyte confluency); settings: cell confluency (%) over time, n = 4 wells
Protocol: (§1) The cell proliferation was quantified in terms of cell confluency (%) over time; data points were collected every hour. […] LNCaP, it is presumed that the observed effect cannot only be attributed to KV10.1 inhibition (Figure S5).
(§2) Cell lines SH-SY5Y (ACC 209), LNCaP (ACC 256) and NIH-3T3 (ACC 59) were purchased from DSMZ (Germany). MDA-MB-435S (HTB 129) and hTERT RPE-1 (CRL 4000) were obtained from ATCC (USA). Cell lines were cultured in their recommended media supplemented with 10% or 15% FCS (PAA laboratories, Cölbe, Germany) at 37 °C in humidified 5% CO2 atmosphere. All media were purchased from ThermoFisher Scientific (Waltham, MA, USA).
(§3) Cell proliferation, cytotoxicity and apoptosis were assessed in a 96-well microtiter plate by live-cell imaging using an IncuCyte Zoom System (Essen BioScience, Welwyn Garden City, UK). Cell proliferation was monitored in terms of cell confluency (%). Cell cytotoxicity was assessed by the CellTox Green Dye assay (Promega, Madison, WI, USA). The IncuCyte Caspase-3/7 apoptosis assay (Essen BioScience, UK) was used to evaluate the effect of APETx4 on the apoptotic pathway.
(§4) Live-cell imaging data were collected from the IncuCyte Zoom software and analyzed using GraphPad Prism 6 software. Proliferation was measured as Phase Object Confluence (%), cytotoxicity and apoptosis were measured as Green Object Count (1/mm²). Data points were collected every hour. In order to improve the clarity of the graphs, only the data points for every 5 h are shown. All data are represented as mean ± S.E.M of n = 4 different wells.

SH-SY5Y [2] = assay: proliferation (IncuCyte confluency); settings: cell confluency (%) over time, n = 4 wells
Protocol: as §1, §2, §3, §4

LNCaP = system: LNCaP
Description: (§5) The proapoptotic activity of APETx4 was visualized and quantified by the addition of the IncuCyte Caspase-3/7 Reagent. This reagent is an inert and non-fluorescent substrate, which is cleaved by activated caspase-3/7 during early apoptosis. The cleavage of the reagent releases a DNA-binding green fluorescent dye. […] In Figure 7 an overview is given for the caspase assays of all the tested cell lines.
(§6) Figure 7 Investigation of the proapoptotic effect of APETx4 on various cell lines using a Caspase-3/7 Reagent. The amount of cells in early apoptosis was plotted as Green Object Count (1/mm²) versus time (hours). The data points represented as red triangles were obtained from apoptosis experiments with cells incubated without APETx4, the green squares represent experiments with 20 µM APETx4 and the blue circles were obtained from experiments with 50 µM APETx4.
as §2, §3, §4

MDA-MB-435S [3] = system: MDA-MB-435S
Description: as §5, §6, §2, §3, §4

SH-SY5Y [4] = system: SH-SY5Y
Description: as §5, §6, §2, §3, §4

hTERT RPE-1 = system: hTERT RPE-1
Description: as §5, §6, §2, §3, §4

[5] = 50 µM APETx4, immediately after toxin addition
[6] = 50 µM APETx4, 0 h, 24 h and 48 h
[7] = green object count (1/mm²) versus incubation time

GTTCYCGKTIGIYWFGKYSCPTNRGYTGSCPYFLGICCYPVD (disulfide 4-37, 6-30, 20-38) [APETx4]
hERG tail current at positive activation steps (≥0 mV) (hKV11.1 (hERG); 10 µM APETx4): tail current increased
highest inhibition of hERG inward tail current (hKV11.1 (hERG); 10 µM APETx4, activating step to −20 mV): 21 ± 5%
shift of hERG activation curve towards more positive potentials (hKV11.1 (hERG); 10 µM APETx4, inward tail currents, Boltzmann fit, n = 3, p < 0.05): 7.7 ± 0.4 mV
selectivity KV10.1 versus hERG (hKV11.1 (hERG); low micromolar concentrations): discriminates between KV10.1 and hERG; also recorded: makes a clear distinction between KV10.1 and hERG
antiproliferative effect (MDA-MB-435S [1]): concentration-dependent antiproliferative effect
antiproliferative effect (SH-SY5Y [2]): concentration-dependent antiproliferative effect
viability in cell images (LNCaP; [5]): became less viable
response time in caspase assay (LNCaP; very rapid response): < 60 min
viability in cell images (MDA-MB-435S [3]; [6]): immediate effects were not clearly observed
time course of green fluorescent cells (early apoptosis) (MDA-MB-435S [3]; [7]): gradual increase in green fluorescent cells
viability in cell images (SH-SY5Y [4]; [6]): immediate effects were not clearly observed
time course of green fluorescent cells (early apoptosis) (SH-SY5Y [4]; [7]): gradual increase in green fluorescent cells
viability in cell images (hTERT RPE-1; [5]): became less viable
response time in caspase assay (hTERT RPE-1; very rapid response): < 60 min
